Experimental data: patent CN101125142A, “青蒿素在制备抗肿瘤多药耐药药物中的应用” (DONGZHIMEN HOSPITAL AFFILIATED TO BEIJING UNIVERSITY OF …, priority 2007, dated 2008)
“And” between values parts separate entries of the source, which are not always exact repeats. Equal entries are not always repeated. “Also recorded” adds a separate entry of the source. Where two headings read alike, the source gives them in different places.

Experiments:
KBV200 cells (KBV200细胞) [1] = conditions: KBV200 cell line; cited from earlier work
KBV200 cells (KBV200细胞) [2] = assay: MTT cytotoxicity test: growth inhibition of KBV200 cells by single agents; type: cell-based, human; conditions: for IC50: KBv200; for inhibitory effect on tumour cells compared with another agent: artesunate versus artemisinin, dihydroartemisinin versus artesunate
KBV200 cells (KBV200细胞) [3] = assay: Reversal of resistance: MTT growth inhibition of KBV200 cells by agent combined with VCR; type: cell-based, human; conditions: for inhibition rate of KBV200 cells on combination with VCR: VCR concentration constant, three agent concentrations; for reversal of vincristine resistance / sensitisation of KBV200 to VCR: agent combined with VCR
[4] = tested on: tumour multidrug resistance (肿瘤多药耐药); conditions: background; cited from earlier work
[5] = Homo sapiens, mass concentration in brackets beside the μmol/l value
[6] = Homo sapiens, single agent, 72 h (discussion)

Compound: O=c1[nH]cc(F)c(=O)[nH]1 [5-氟脲嘧啶]
- resistance (KBV200 cells (KBV200细胞) [1]): 耐药性较低

Compound: CC[C@]1(O)C[C@H]2CN(CCc3c([nH]c4ccccc34)[C@@](C(=O)OC)(c3cc4c(cc3OC)N(C=O)[C@H]3[C@@](O)(C(=O)OC)[C@H](OC(C)=O)[C@]5(CC)C=CCN6CC[C@]43[C@@H]65)C2)C1 [VCR, 长春新碱]
- fold resistance (KBV200 cells (KBV200细胞) [1]): ~175 fold
- inhibition rate (KBV200 cells (KBV200细胞) [2]): < 50%
- inhibition at 0.125 µg/mL (KBV200 cells (KBV200细胞) [2]; Homo sapiens, KBv200, 72 h, VCR 0.125 μg/ml, 72 h, read-out: inhibition rate (IR)): 6.51 ± 2.59%
- inhibition at 0.25 µg/mL (KBV200 cells (KBV200细胞) [2]; Homo sapiens, KBv200, 72 h, VCR 0.250 μg/ml, 72 h, read-out: inhibition rate (IR)): 9.06 ± 3.13%
- inhibition at 0.5 µg/mL (KBV200 cells (KBV200细胞) [2]; Homo sapiens, KBv200, 72 h, VCR 0.500 μg/ml, 72 h, read-out: inhibition rate (IR)): 13.9 ± 3.54%
- inhibition at 1 µg/mL (KBV200 cells (KBV200细胞) [2]; Homo sapiens, KBv200, 72 h, VCR 1.000 μg/ml, 72 h, read-out: inhibition rate (IR)): 25.6 ± 1.71%
- inhibition at 2 µg/mL (KBV200 cells (KBV200细胞) [2]; Homo sapiens, KBv200, 72 h, VCR 2.000 μg/ml, 72 h, read-out: inhibition rate (IR)): 66.3 ± 0.01%
- IC50 (KBV200 cells (KBV200细胞) [2]; Homo sapiens, VCR alone, 72 h): 1.58 ± 1.22 µg/mL
- inhibition rate (IR) (KBV200 cells (KBV200细胞) [2]; VCR 0.500 μg/ml, 72 h): 13.96±3.54%
- inhibition rate (IR) (KBV200 cells (KBV200细胞) [2]; VCR 1.000 μg/ml, 72 h): 25.65±1.71%
- inhibition rate (IR) (KBV200 cells (KBV200细胞) [2]; VCR 2.000 μg/ml, 72 h): 66.31±0.01%
- inhibitory effect on KBV200 cells (KBV200 cells (KBV200细胞) [2]; VCR above 1.58 μg/ml): 具有较为明显的抑制效应
- inhibitory effect on KBV200 cells (KBV200 cells (KBV200细胞) [2]; VCR below 1 μg/ml): 抑制效应并不明显

Compound: CC1CCC2C(C)C(O)OC3OC4(C)CCC1C32OO4 (stereo not drawn) [二氢青蒿素]
- inhibition rate of KBV200 cells on combination with VCR (KBV200 cells (KBV200细胞) [3]): 略有提高
- reversal of vincristine resistance / sensitisation of KBV200 to VCR (KBV200 cells (KBV200细胞) [3]): 有一定的增敏作用
- reversal fold (RI) (KBV200 cells (KBV200细胞) [3]; dihydroartemisinin 0.625 umol/l with VCR): 1.35
- reversal fold (RI) (KBV200 cells (KBV200细胞) [3]; dihydroartemisinin 1.25 umol/l with VCR): 1.515
- reversal fold (RI) (KBV200 cells (KBV200细胞) [3]; dihydroartemisinin 2.5 umol/l with VCR): 1.74
- IC50 (KBV200 cells (KBV200细胞) [2]; [5]): 3.18 µg/mL
- IC50 (KBV200 cells (KBV200细胞) [2]; [6]): 11.2 µM
- inhibitory effect on tumour cells compared with another agent (KBV200 cells (KBV200细胞) [2]): 较青蒿琥酯次之
- inhibition rate (IR) (KBV200 cells (KBV200细胞) [2]; dihydroartemisinin 0.156 μmol/l, 72 h): 0.680±0.84%
- inhibition rate (IR) (KBV200 cells (KBV200细胞) [2]; dihydroartemisinin 0.313 μmol/l, 72 h): 0.940±3.87%
- inhibition rate (IR) (KBV200 cells (KBV200细胞) [2]; dihydroartemisinin 1.250 μmol/l, 72 h): < 20% and 10.00±3.31%
- inhibition rate (IR) (KBV200 cells (KBV200细胞) [2]; dihydroartemisinin 2.500 μmol/l, 72 h): < 20% and 18.50±4.88%
- inhibition rate (IR) (KBV200 cells (KBV200细胞) [2]; dihydroartemisinin 5.000 μmol/l, 72 h): 32.30±10.1%
- inhibition rate (IR) (KBV200 cells (KBV200细胞) [2]; dihydroartemisinin 10.00 μmol/l, 72 h): 48.69±6.53%
- inhibition rate (IR) (KBV200 cells (KBV200细胞) [2]; dihydroartemisinin 20.00 μmol/l, 72 h): 71.98±7.16%
- inhibition rate (IR) (KBV200 cells (KBV200细胞) [2]; dihydroartemisinin 40.00 μmol/l, 72 h): 89.99±4.39%
- inhibition rate (KBV200 cells (KBV200细胞) [2]; dihydroartemisinin above 11.16 umol/l): > 50%
- inhibitory effect on KBV200 cells (KBV200 cells (KBV200细胞) [2]; dihydroartemisinin below 0.313 umol/l): 几乎无抑制效应
- inhibition rate (KBV200 cells (KBV200细胞) [2]; dihydroartemisinin below 2.5 umol/l): < 20%
- inhibitory effect on KBV200 cells (KBV200 cells (KBV200细胞) [2]; dihydroartemisinin below 10 umol/l): 抑制效应并不明显
- inhibitory effect on KBV200 cells (KBV200 cells (KBV200细胞) [2]; overall statement): 大浓度具有一定的抑制KBV200细胞增殖效应; also recorded: 均有一定抑制效应

Compound: COc1cc2c(cc1OC)[C@@H]1Cc3ccc(OC)c(OC)c3CN1CC2 [左旋四氢马汀]
- reversal fold [4]: 8.2-13.0

Compound: COc1cc2c(c(OC)c1OC)-c1ccc(OC)c(=O)cc1[C@@H](NC(C)=O)CC2 [秋水仙素]
- fold resistance (KBV200 cells (KBV200细胞) [1]): ~15 fold

Compound: COc1ccc2cc1Oc1ccc(cc1)C[C@H]1c3cc(c(OC)cc3CCN1C)Oc1c(OC)c(OC)cc3c1[C@H](C2)N(C)CC3 [粉防已碱]
- reversal fold [4]: 8.2-13.0

Compound: CC(=O)O[C@H]1C(=O)[C@@]2(C)[C@H]([C@H](OC(=O)c3ccccc3)[C@]3(O)C[C@H](OC(=O)[C@H](O)[C@@H](NC(=O)c4ccccc4)c4ccccc4)C(C)=C1C3(C)C)[C@]1(OC(C)=O)CO[C@@H]1C[C@@H]2O [紫杉醇]
- fold resistance (KBV200 cells (KBV200细胞) [1]): ~156 fold

Compound: COc1cc2c(cc1OC)[C@@H](Cc1ccc(Oc3cc(C[C@@H]4c5cc(OC)c(OC)cc5CCN4C)ccc3O)cc1)N(C)CC2 [蝙蝠葛碱]
- reversal fold [4]: 8.2-13.0

Compound: COc1cccc2c1C(=O)c1c(O)c3c(c(O)c1C2=O)C[C@@](O)(C(=O)CO)C[C@@H]3O[C@H]1C[C@H](N)[C@H](O)[C@H](C)O1 [阿霉素]
- fold resistance (KBV200 cells (KBV200细胞) [1]): ~15 fold

Compound: C[C@H]1[C@H](OC(=O)CCC(=O)O)O[C@@H]2O[C@@]3(C)CC[C@H]4[C@H](C)CC[C@@H]1[C@@]24OO3 [青蒿琥酯]
- inhibition rate of KBV200 cells on combination with VCR (KBV200 cells (KBV200细胞) [3]): 略有提高
- reversal of vincristine resistance / sensitisation of KBV200 to VCR (KBV200 cells (KBV200细胞) [3]): 有一定的增敏作用
- reversal fold (RI) (KBV200 cells (KBV200细胞) [3]; artesunate 0.078 umol/l with VCR): 1.19
- reversal fold (RI) (KBV200 cells (KBV200细胞) [3]; artesunate 0.156 umol/l with VCR): 1.79
- reversal fold (RI) (KBV200 cells (KBV200细胞) [3]; artesunate 0.313 umol/l with VCR): 2.57
- selective killing of KBV200 cells (KBV200 cells (KBV200细胞) [2]): 有选择性杀伤作用
- IC50 (KBV200 cells (KBV200细胞) [2]; [5]): 0.563 µg/mL
- IC50 (KBV200 cells (KBV200细胞) [2]; [6]): 1.47 µM
- inhibition rate (IR) (KBV200 cells (KBV200细胞) [2]; artesunate 0.0156 μmol/l (so in the source), 72 h): 9.520±4.910%
- inhibition rate (IR) (KBV200 cells (KBV200细胞) [2]; artesunate 0.0390 μmol/l, 72 h): 1.640±3.520%
- inhibition rate (KBV200 cells (KBV200细胞) [2]; artesunate 0.156 umol/l): < 20%
- inhibition rate (IR) (KBV200 cells (KBV200细胞) [2]; artesunate 0.3130 μmol/l, 72 h): < 20% and 18.41±4.420%
- inhibition rate (IR) (KBV200 cells (KBV200细胞) [2]; artesunate 0.6250 μmol/l, 72 h): 35.25±10.52%
- inhibition rate (IR) (KBV200 cells (KBV200细胞) [2]; artesunate 1.2500 μmol/l, 72 h): 47.56±1.250%
- inhibition rate (IR) (KBV200 cells (KBV200细胞) [2]; artesunate 2.5000 μmol/l, 72 h): 57.67±1.110%
- inhibition rate (IR) (KBV200 cells (KBV200细胞) [2]; artesunate 5.0000 μmol/l, 72 h): 69.85±6.900%
- inhibition rate (IR) (KBV200 cells (KBV200细胞) [2]; artesunate 10.000 μmol/l, 72 h): 84.47±0.600%
- inhibition rate (IR) (KBV200 cells (KBV200细胞) [2]; artesunate 20.000 μmol/l, 72 h): 95.02±6.560%
- inhibition rate (KBV200 cells (KBV200细胞) [2]; artesunate above 1.466 umol/l): > 50%
- inhibitory effect on KBV200 cells (KBV200 cells (KBV200细胞) [2]; artesunate below 0.039 umol/l): 几乎无抑制效应
- inhibition rate (KBV200 cells (KBV200细胞) [2]; artesunate below 0.313 umol/l): < 20%
- inhibitory effect on KBV200 cells (KBV200 cells (KBV200细胞) [2]; artesunate below 1.25 umol/l): 抑制效应并不明显
- inhibitory effect on tumour cells compared with another agent (KBV200 cells (KBV200细胞) [2]): 比青蒿素显著增强
- inhibitory effect on KBV200 cells (KBV200 cells (KBV200细胞) [2]; overall statement): 大浓度具有一定的抑制KBV200细胞增殖效应; also recorded: 均有一定抑制效应

Compound: C[C@@H]1CC[C@H]2[C@@H](C)C(=O)O[C@@H]3O[C@@]4(C)CC[C@@H]1[C@]32OO4 [青蒿素]
- inhibition rate of KBV200 cells on combination with VCR (KBV200 cells (KBV200细胞) [3]): 明显提高
- reversal of vincristine resistance / sensitisation of KBV200 to VCR (KBV200 cells (KBV200细胞) [3]): 可部分逆转; also recorded: 具有不同的逆转KBV200耐药效应
- reversal fold (RI) (KBV200 cells (KBV200细胞) [3]; artemisinin 10 umol/l with VCR, RI = IC50 VCR / IC50 VCR+agent): 2.29
- reversal fold (RI) (KBV200 cells (KBV200细胞) [3]; artemisinin 20 umol/l with VCR): 2.68
- reversal fold (RI) (KBV200 cells (KBV200细胞) [3]; artemisinin 40 umol/l with VCR): 3.0
- IC50 (KBV200 cells (KBV200细胞) [2]; [5]): 48.6 µg/mL
- IC50 (KBV200 cells (KBV200细胞) [2]; [6]): 172 µM
- inhibition rate (IR) (KBV200 cells (KBV200细胞) [2]; artemisinin 2.50 μmol/l, 72 h): 1.140±2.85%
- inhibition rate (IR) (KBV200 cells (KBV200细胞) [2]; artemisinin 5.00 μmol/l, 72 h): 2.690±4.36%
- inhibition rate (IR) (KBV200 cells (KBV200细胞) [2]; artemisinin 20.0 μmol/l, 72 h): < 20% and 12.70±2.53%
- inhibition rate (IR) (KBV200 cells (KBV200细胞) [2]; artemisinin 40.0 μmol/l, 72 h): < 20% and 19.22±5.59%
- inhibition rate (IR) (KBV200 cells (KBV200细胞) [2]; artemisinin 80.0 μmol/l, 72 h): 28.47±2.73%
- inhibition rate (IR) (KBV200 cells (KBV200细胞) [2]; artemisinin 160 μmol/l, 72 h): 43.57±5.20%
- inhibition rate (KBV200 cells (KBV200细胞) [2]; artemisinin above 172.4 umol/l): > 50%
- inhibitory effect on KBV200 cells (KBV200 cells (KBV200细胞) [2]; artemisinin below 2.50 umol/l): 几乎无抑制效应
- inhibition rate (KBV200 cells (KBV200细胞) [2]; artemisinin below 40 umol/l): < 20%
- inhibition rate (KBV200 cells (KBV200细胞) [2]; artemisinin below 80 umol/l): < 30%
- inhibitory effect on KBV200 cells (KBV200 cells (KBV200细胞) [2]; artemisinin below 160 umol/l): 抑制效应并不明显
- inhibitory effect on KBV200 cells (KBV200 cells (KBV200细胞) [2]; overall statement): 大浓度具有一定的抑制KBV200细胞增殖效应; also recorded: 均有一定抑制效应

Compound: COC(=O)C[C@](O)(CCCC(C)(C)O)C(=O)O[C@@H]1C(OC)=C[C@]23CCCN2CCc2cc4c(cc2[C@H]13)OCO4 [高三尖杉酯]
- resistance (KBV200 cells (KBV200细胞) [1]): 耐药性较低

Compound: COc1cc([C@@H]2c3cc4c(cc3[C@@H](O[C@@H]3O[C@@H]5CO[C@@H](C)O[C@H]5[C@H](O)[C@H]3O)[C@H]3COC(=O)[C@H]23)OCO4)cc(OC)c1O [鬼臼乙叉甙]
- resistance (KBV200 cells (KBV200细胞) [1]): 耐药性较低

Compound: 人参皂甙Rb1
- reversal fold [4]: 8.2-13.0
